These results are taken from paper PMC7180839, “Biophysical Screens Identify Fragments That Bind to the Viral DNA-Binding Proteins EBNA1 and LANA” (Molecules, 2020).

Broadly, the Kd is a measure of binding affinity in units of concentration. Low readings indicate higher affinity, high ones lower affinity.

One assay addresses T1, EBNA1 (468–607) (Epstein-Barr virus, UniProt P03211).
T1 construct: using purified EBNA1 (468–607) mixed in a 2 μl:2 μl ratio with reservoir solution; made in house
Description: X-ray crystallography, fragment soaked into preformed EBNA1 crystals. Conditions: crystal soak 4 h; 1.3 Å structure, PDB 6VH6; pocket that contacts the DNA phosphate backbone. Type of assay: binding, Epstein–Barr virus (EBV). An excerpt:
We determined the high-resolution crystal structure of one fragment bound to EBNA1 (Figure 4). We soaked the fragment AC37287 into preformed crystals of EBNA1 (468–607). The crystal of AC37287 diffracted to 1.3 Ångstroms and was solved by isomorphous replacement. The electron density around AC38287 is unambiguous at this resolution (Figure 4A). The aliphatic portion of AC37287 binds into a deep hydrophobic pocket made up of the hydrophobic residues I481, L520, L582, V483 and I593 (Figure 4B). The lactone is sandwiched between residues N519 and T590 within the range of a hydrogen bond of N519 (Figure 4C). This molecule binds in a region that is important for DNA binding (Figure 4D).
Crystals were grown using the vapor diffusion method in 24–48 h using purified EBNA1 (468–607) mixed in a 2 μl:2 μl ratio with reservoir solution (50 mM MES, pH 6.5, 0–150 mM NaCl, and 10 mM DTT). Crystals were transferred to a solution containing 25–30% glycerol and 0.2 μl of 50 mM of AC37287, incubated for 4 h and flash frozen for data collection. Data were collected on the 21BM beamline at the Argonne Light Source (ALS) at Argonne National Laboratory. Data were indexed, reduced, and scaled using HKL3000. The structures were solved by isomorphous replacement. Models were refined in PHENIX, version 1.17, using simulated annealing, minimization, and individual B-factor refinement. […]

The target of assay [1] is T2, EBNA1-CAC (EBNA1 DNA-binding domain) (Epstein-Barr virus, UniProt P03211, C531S/C560S/C591S/C598S).
T2 construct: His-tag-SUMO (N, cleaved yes); made in house; host or cells: Escherichia coli
T2 sequence (P03211 459-607 C531S/C560S/C591S/C598S): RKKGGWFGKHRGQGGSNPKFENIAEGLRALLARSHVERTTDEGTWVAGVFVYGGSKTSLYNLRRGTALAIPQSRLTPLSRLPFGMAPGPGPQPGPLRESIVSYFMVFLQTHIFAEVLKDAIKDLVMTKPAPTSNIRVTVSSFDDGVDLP
Description: SPR affinity assay, EBNA1-CAC immobilized on CM5 chip via thiol coupling. Also on record: species or system Epstein–Barr virus (EBV). Conditions: Biacore S200, 1:1 interaction model, global Rmax, fragment 79-900 μM, 5% DMSO, pH 7.1. As to the method:
SPR experiments were performed on a Biacore™ S200 instrument (GE Healthcare). […] As an alternative, we developed a thiol coupling method to immobilize EBNA1 and LANA to the Biacore sensor chip. We synthesized a construct that expressed a version of EBNA1 and LANA DNA-binding domains with the internal cysteines mutated to serine and Cys-Ala-Cys added to the C terminus (EBNA1-CAC and LANA-CAC).
The 1000 fragments from the library were screened at a concentration of 1 mM (5% DMSO). Hits were selected on the basis of the following criteria: a relative binding response normalized with respect to the positive control, no indication that multiple fragments were bound, R > Rmax (R = Response units, Rmax = the maximum binding capacity based on control fragment) and sensorgram shapes consistent with fragment binding (rapid on and off rates). Based on these criteria, 94 EBNA1 fragments and 104 LANA fragments were selected for further validation to measure binding affinities, which were determined to range from 0.2 to >10 mM. […]
To validate fragments from the primary screen, an affinity assay was performed. […] Binding sensorgrams were processed by first subtracting the binding response recorded from the control surface (reference flow cell), followed by solvent correction. […] Affinities were assessed using a global Rmax determined by reference compounds. […]
For orientation: Surface plasmon resonance follows binding to a sensor surface in real time, without labels.

T1 sequence (P03211 468-607): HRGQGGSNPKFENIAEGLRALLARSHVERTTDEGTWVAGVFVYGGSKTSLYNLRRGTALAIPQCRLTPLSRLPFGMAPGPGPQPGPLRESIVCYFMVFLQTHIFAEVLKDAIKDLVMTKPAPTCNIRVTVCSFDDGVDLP

As to `Cc1ccc2oc(=O)cc(O)c2c1` [AC37287], on EBNA1 (468–607), the “fragment binding observed in crystal structure” value was “binds in this pocket of EBNA1”.

In assay [1], `OCCCCn1cnc2cc(Cl)c(Cl)cc21` [SPB07625] showed a Kd of 2100 µM. In other words, the millimolar range.
